Results taken from publication PMC9714921 (PLOS Pathogens, 2022).
Where “and” joins values, the source holds several entries; their conditions need not be identical. Equal values may be shown once. Where a name gives a salt, the structure may show the parent alone. Read-outs that look alike come from different tables or passages of the source.

Key:
Dme-ACR-16 = Dme-ACR-16 (Dracunculus medinensis, UniProt A0A0N4U0T6); experiment: cell-based; type: cell-based
Method: (§1) cRNA for oocyte injection was prepared with the mMESSAGE mMACHINE T7 kit following manufacturers protocol (Ambion, USA). Concentration was determined using a Nanodrop spectrophotometer. Desired subunit combinations with associated accessory proteins were mixed and diluted with nuclease-free water to a final concentration of 250 ng/uL for each construct.
(§2) Adult female X. laevis oocyte extraction was performed in accordance with the McGill University Animal Use Protocol 2015–7758 following standard protocol. Briefly, frog ovary lobes were placed in a Ca^2+-free OR2 solution (82 mM NaCl, 2 mM KCl, 1 mM MgCl2, 5 mM HEPES buffer, pH 7.3) and manually divided into clusters of <10 oocytes with thin tweezers followed by a 90-minute incubation in 10 mg/mL collagenase type II (Sigma-Aldrich, USA). Oocytes were washed in Ca^2+-free OR2 and placed ND96 solution (NaCl 96 mM, KCl 2 mM, CaCl2 1.8 mM, MgCl2 1 mM and HEPES 5 mM, pH 7.3) supplemented with sodium pyruvate 2.5 mM [86] and incubated at 18°C until cRNA injection. Oocytes were injected with 50 nL (12.5 ng of each injected gene) of the desired cRNA subunit and accessory protein combination mix with the NanojectII (Drummond Scientific, USA). Following injection, oocytes were incubated in ND96 buffer at 18°C until electrophysiology. All electrophysiology was conducted two days post-injection, except for the expression analysis assay in which oocytes were measured every day after injection for three consecutive days.
(§3) All drugs were dissolved in recording solution (NaCl 100 mM, KCl 2.5 mM, CaCl2 1 mM, HEPES 5 mM, pH 7.3) to a stock concentration of 10 mM and diluted to their final recording concentrations. Oxantel and bephenium were first dissolved in DMSO to ensure a final recording concentration contained less than 0.1% DMSO. For agonist profiling, all drugs were diluted to a concentration of 100 μM.
(§4) Oocytes were placed individually in an RC3Z chamber (Harvard Apparatus, USA) submerged in recording solution (NaCl 100 mM, KCl 2.5 mM, CaCl2 1 mM, HEPES 5 mM, pH 7.3). The RC3Z chamber was connected to a perfusion system containing recording solution and ligand solutions. Pulled glass capillaries (World Precision Instruments, USA) were filled with 3M KCl and the tips clipped and checked for appropriate resistance (between 0.5 and 5 MΩ). A 3M KCl agar bridge grounded the oocyte bath chamber. Measurements were made using an Axon Axoclamp 900A amplifier with Digidata1550M. […] Ligand solutions were applied to the oocytes with an approximate flow rate of 1.2 m/s and current responses measured. Oocytes were exposed to the ligand solution until a distinct current peak was observed followed by a wash with the recording solution until current returned to baseline for a minimum of 10 seconds until the next ligand exposure. For BAPTA-AM exposed oocytes, oocytes were incubated in 100 μM BAPTA-AM for four hours prior to electrophysiology recording. Data was analyzed using Clampex 9.2 (Axon Instruments, USA) and statistical analysis and graphs produced in Prism (GraphPad version 9.1). T-tests were used to compare responses with error bars representing standard error. For concentration-response curves, individual oocyte current response to the different ligand concentrations were normalized to the response obtained with 300 μM. Data was fit using the Graphpad “log(agonist) vs normalized response–variable slope” equation, with 95% confidence intervals being reported. […] For examples of oocyte responses, recordings were filtered in Clampfit using the lowband pass at 40 Hz cutoff.

Tzc-ACR-16 = Tzc-ACR-16 (Thelazia callipaeda, UniProt A0A158RD20); experiment: cell-based; type: cell-based
Chain of Tzc-ACR-16 (A0A158RD20 entry or part of it): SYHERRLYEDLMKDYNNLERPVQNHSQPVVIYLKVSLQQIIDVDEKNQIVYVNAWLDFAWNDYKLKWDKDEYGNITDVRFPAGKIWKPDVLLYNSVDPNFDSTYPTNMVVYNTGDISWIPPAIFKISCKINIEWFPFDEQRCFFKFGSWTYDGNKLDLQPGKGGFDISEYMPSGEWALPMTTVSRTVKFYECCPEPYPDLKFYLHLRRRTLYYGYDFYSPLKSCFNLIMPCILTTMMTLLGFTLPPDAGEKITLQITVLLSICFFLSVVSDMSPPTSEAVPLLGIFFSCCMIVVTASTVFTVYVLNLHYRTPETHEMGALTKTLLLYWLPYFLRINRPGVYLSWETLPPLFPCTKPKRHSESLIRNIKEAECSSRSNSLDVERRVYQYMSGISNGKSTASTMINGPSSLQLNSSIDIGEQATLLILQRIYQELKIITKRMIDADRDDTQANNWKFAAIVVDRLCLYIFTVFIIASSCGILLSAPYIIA
Method: as §1, §2, §3, §4

Asu-ACR-16 = Asu-ACR-16 (Ascaris suum, UniProt F1KYJ9); experiment: cell-based; type: cell-based
Method: as §1, §2, §3, §4

Gpu-ACR-16 = experiment: Voltage-clamp electrophysiology, N-AChR reconstituted in Xenopus laevis oocytes; type: cell-based, Gonglyonema pulchrum; details: for response to 100 μM ligand relative to 100 μM ACh (in words): agonist panel, Fig 5C; for current response to 100 μM nicotine: co-injected: H. contortus RIC-3
Method: as §1, §2, §3, §4

Bma-ACR-16 = type: cell-based, Brugia malayi; details: co-injected: H. contortus RIC-3
Method: as §1, §2, §3, §4

A celanicum N-AChR = details: accessory protein Ric-3; ref [33]; read-out: EC50 μM NIC; cited from earlier work
N. americanus N-AChR = details: accessory protein Ric-3; ref [33]; read-out: EC50 μM NIC; cited from earlier work
P. equorum N-AChR = details: accessory protein Ric-3; ref [40]; read-out: EC50 μM NIC; cited from earlier work
C. elegans N-AChR = system: C. elegans N-AChR; design: method as in Charvet et al., 2018 [40]; details: accessory protein Ric-3; ref Charvet et al., 2018 [40]; read-out: EC50 μM NIC; cited from earlier work
[1] = molecular target: Asu-ACR-16-bmaICL chimera (Ascaris suum; Brugia malayi, UniProt A0A4E9FSR7+F1KYJ9); type: cell-based, A. suum (B. malayi ICL); details: compared to Asu-ACR-16 profile, S3D Fig
Method: B. malayi acr-16 and accessory proteins ric-3, unc-50, unc-74 and molo-1 were cloned from adult female B. malayi cDNA received as a gift from Dr. T. Geary using the primers described in S1 Table. B. malayi eat-18 was prepared from two overlapping oligonucleotide primers. Other subunits were synthesized from their predicted genome sequence (Gene Universal, USA) (S2 Table). […] All sequences were cloned into the pTD2 oocyte expression vector. Asu-ACR-16 and Tzc-ACR-16 chimeras were constructed using appropriate restriction enzymes, reciprocal exchange through ligation and confirmed by sequencing (McLab, USA).
as §1, §2
All drugs were dissolved in recording solution (NaCl 100 mM, KCl 2.5 mM, CaCl2 1 mM, HEPES 5 mM, pH 7.3) to a stock concentration of 10 mM and diluted to their final recording concentrations. […]
Oocytes were placed individually in an RC3Z chamber (Harvard Apparatus, USA) submerged in recording solution (NaCl 100 mM, KCl 2.5 mM, CaCl2 1 mM, HEPES 5 mM, pH 7.3). […] Ligand solutions were applied to the oocytes with an approximate flow rate of 1.2 m/s and current responses measured. […] Data was analyzed using Clampex 9.2 (Axon Instruments, USA) and statistical analysis and graphs produced in Prism (GraphPad version 9.1). […]

Chain of Dme-ACR-16 (A0A0N4U0T6 entry or part of it): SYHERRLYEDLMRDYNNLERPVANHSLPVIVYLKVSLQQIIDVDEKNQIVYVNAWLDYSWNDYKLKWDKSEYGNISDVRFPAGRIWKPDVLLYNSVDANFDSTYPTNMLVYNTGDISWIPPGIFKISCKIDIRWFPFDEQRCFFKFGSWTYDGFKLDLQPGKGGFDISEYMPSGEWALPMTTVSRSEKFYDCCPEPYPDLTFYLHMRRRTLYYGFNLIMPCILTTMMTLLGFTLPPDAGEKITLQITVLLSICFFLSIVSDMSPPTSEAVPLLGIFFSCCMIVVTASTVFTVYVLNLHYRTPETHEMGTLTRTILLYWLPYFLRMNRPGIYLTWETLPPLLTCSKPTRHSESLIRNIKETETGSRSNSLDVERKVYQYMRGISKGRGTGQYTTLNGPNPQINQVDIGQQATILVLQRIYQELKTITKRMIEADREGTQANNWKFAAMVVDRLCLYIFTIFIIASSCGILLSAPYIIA

Row | SMILES | response to 100 μM ligand relative to 100 μM ACh (in words) (Dme-ACR-16; agonist panel, Fig 5B) | response to 100 μM ligand relative to 100 μM ACh (in words) (Tzc-ACR-16; agonist panel, Fig 5D) | response to 100 μM ligand relative to 100 μM ACh (in words) (Asu-ACR-16; agonist panel, Fig 5A) | response to 100 μM ligand relative to 100 μM ACh (in words) (Gpu-ACR-16) | also measured
1 | NC[C@H](O)c1ccc(O)c(O)c1 [NOR, norepinephrine] | No response | No response | No response | No response | 
2 | CN1CCCN=C1/C=C/c1cccc(O)c1 [OXA, oxantel] | smaller response | smaller response | smaller response | smaller response | 
3 | NCCc1ccc(O)cc1 [TYR, tyramine] | No response | No response | No response | No response | 
4 | Cc1ccsc1/C=C/C1=NCCCN1C [MOR, morantel] | minimal response | minimal response | minimal response | minimal response | 
5 | CN1CCCN=C1/C=C/c1cccs1 [PYR, pyrantel] | minimal response | minimal response | minimal response | minimal response | 
6 | CN1CCC[C@H]1c1cccnc1 [NIC, (-)-nicotine hydrogen tartrate] |  |  |  | large response | current response to 100 μM nicotine (Bma-ACR-16): 0 ± 0 nA and no measurable current; EC50 (A celanicum N-AChR): 24.4 ± 2.89 µM; EC50 (N. americanus N-AChR): 598 ± 59.1 µM; EC50 (P. equorum N-AChR): 2.9 ± 0.5 µM; EC50 (C. elegans N-AChR): 15.1 ± 1.3 µM; EC50 (Dme-ACR-16): 3.8 µM; current response to 100 μM nicotine (Dme-ACR-16): 2025 ± 81 nA and 2000–2200 nA; response to 100 μM ligand relative to 100 μM ACh (in words) (Dme-ACR-16): large response; EC50 (Tzc-ACR-16): 4.9 µM; current response to 100 μM nicotine (Tzc-ACR-16): 481 ± 45 nA and 400–600 nA; response to 100 μM ligand relative to 100 μM ACh (in words) (Tzc-ACR-16): large response; EC50 (Asu-ACR-16): 5.1 µM; current response to 100 μM nicotine (Asu-ACR-16): 2067 ± 74 nA and 2000–2200 nA; response to 100 μM ligand relative to 100 μM ACh (in words) (Asu-ACR-16): large response; current response to 100 μM nicotine (Gpu-ACR-16): ~ 1400 nA; current response to 100 μM nicotine (Gpu-ACR-16; listed as nicotine): 1231 ± 98 nA; EC50 (Gpu-ACR-16; concentration-response 0.3-300 μM, normalized to 300 μM, with 95% CI, read-out: EC50 NIC): 2.1 µM
7 | C[N+]1(C)CCN(c2ccccc2)CC1 [DMPP, dimethylphenylpiperazinium] | smaller response | smaller response | smaller response | smaller response | response to 100 μM ligand relative to acetylcholine (in words) [1]: higher responses
8 | C[N+](C)(C)CC(=O)O [BET, betaine] | No response | No response | No response | No response | 
9 | c1ccc([C@H]2CN3CCSC3=N2)cc1 [LEV, (-)-tetramisole hydrochloride] | No response | No response | No response | No response | 
10 | NCCc1ccc(O)c(O)c1 [DA, dopamine] | No response | No response | No response | No response | 
11 | CNC[C@H](O)c1ccc(O)c(O)c1 [EPI, epinephrine] |  |  |  | No response | response to 100 μM ligand relative to 100 μM ACh (in words) (Dme-ACR-16): No response; response to 100 μM ligand relative to 100 μM ACh (in words) (Tzc-ACR-16): No response; response to 100 μM ligand relative to 100 μM ACh (in words) (Asu-ACR-16): No response
12 | C[N+](C)(CCOc1ccccc1)Cc1ccccc1 [BEPH, bephenium] | No response | No response | No response | No response | 
